From PMC6273235, “Phenolic Constituents of Medicinal Plants with Activity against Trypanosoma brucei” (Molecules, 2016)
Read-outs that look alike come from different tables or passages of the source.

Experiments:
Trypanosoma = system: Trypanosoma; parameters: method as in PMID 16569852, PMID 20004045; conditions: cited from earlier work
[1] = system: T. b. brucei strain 427 (bloodstream forms); assay: Anti-trypanosomal activity on T. brucei (resazurin growth inhibition, 3 days); assay type: cell-based, Trypanosoma brucei
Source text: To identify inhibitors of T. brucei growth, we conducted a screening of a proprietary library consisting of 440 purified natural products isolated from medicinal plants at the CNU laboratories. […] Nevertheless, since, according to the 5th rule, natural products may also represent exceptions from the other rules, all compounds were submitted to antiparasitic screening performed at a single concentration of 5 ppm (µg/mL) of each purified natural product.
T. b. brucei strain 427 (bloodstream forms) were cultivated at 37 °C with 5% CO2 atmosphere in HMI-9 medium supplemented with 10% FBS. […] After the incubation, the parasites were exposed to 120 µM of resazurin sodium salt for 5 h. Then, the parasites were fixed with 4% PFA and the assay plates were read by Victor 3 (PerkinElmer, Waltham, MA, USA) at 530 nmEx/590 nmEm. Pentamidine was used as a reference drug and DMSO 0.5% was used as a drug-negative control.

[2] = Cytotoxicity assay (resazurin, 3 days), HepG2; assay type: cell-based, human; conditions: human
Procedure: (§1) HEK293T and HepG2 cells were cultured at 37 °C with 5% CO2 in Dulbecco’s modified eagle medium containing 10% FBS. Both cell lines were plated individually in 384 well plates (4000 cells per well) and the natural compounds (two fold 10 points serial dilution starting from 5 ppm) were added for 3 days of incubation.

HepG2 cells = assay: Cytotoxicity assay (resazurin, 3 days), HepG2; assay type: cell-based, human; conditions: for s.i (selectivity index) HepG2: CC50 (HepG2)/IC50 (T. brucei)
Procedure: as §1

[3] = Cytotoxicity assay (resazurin, 3 days), HEK293T; assay type: cell-based, human; conditions: human
Procedure: as §1

HEK293T cells = assay: Cytotoxicity assay (resazurin, 3 days), HEK293T; assay type: cell-based, human; conditions: for s.i (selectivity index) HEK239T: CC50 (HEK293T)/IC50 (T. brucei)
Procedure: as §1

[4] = Trypanosoma brucei, 72 h, T. b. brucei strain 427 bloodstream forms, 3 days, mean ± SD, read-out: T. brucei IC50
[5] = Trypanosoma brucei, -log IC50 [M], experimental, read-out: pIC50 Tbr(exp) (converted)
[6] = T. b. brucei strain 427 bloodstream forms, 3 days, mean ± SD, read-out: T. brucei IC50
[7] = HEK293T cells, 3 days, > = highest concentration tested (5 ppm), read-out: Cytotoxicity CC50 Values HEK239T

Compound | anti-trypanosomal activity previously reported (Trypanosoma) | IC50 [1, 4] [M] | IC50 [1, 5] [M] | CC50 at 3 days [2] [µM] | s.i (selectivity index) HepG2 (HepG2 cells) | CC50 at 3 days [3] [µM] | s.i (selectivity index) HEK239T (HEK293T cells) | IC50 [1, 6] [M] | IC50 ([1]; Trypanosoma brucei, 72 h, read-out: T. brucei IC50) [M] | IC50 ([1]; Trypanosoma brucei, read-out: pIC50 Tbr(exp) (converted)) [M] | CC50 at 3 days ([2]; HepG2 cells, 3 days, > = highest concentration tested (5 ppm), read-out: Cytotoxicity CC50 Values HepG2) [µM] | CC50 at 3 days [3, 7] [µM] | pIC50 Tbr(exp) ([1]; -log IC50 [M], experimental) | CC50 (HepG2 cells; HepG2 cells, 3 days, > = highest concentration tested (5 ppm)) [µM] | CC50 (HEK293T cells; [7]) [µM]
O=C(/C=C/c1ccc(O)cc1)CC(=O)/C=C/c1ccc(O)cc1 [Compound 1, bisdemethoxycurcumin] | anti-trypanosomal activity | 9.84e-06 ± 8.4e-07 | 9.84e-06 | > 32.5 | >3.30 | > 32.5 | >3.30 | – | – | – | – | – | – | – | –
CC(C)=CCc1cc(C(=O)/C=C/c2ccc(O)c(O)c2)c(O)cc1O [Compound 4, broussochalcone A] | – | – | 2.17e-06 | > 29.2 | – | > 28.8 | >13.28 | – | – | – | – | – | – | – | –
COc1cc(O)ccc1C(=O)/C=C/c1ccc(O)cc1 [Compound 5, 3-deoxysappanchalcone] | – | > 1e-05 | 1.04e-05 | > 37.1 | >3.58 | > 30.2 | >2.91 | 1.04e-05 ± 3.36e-06 | – | – | – | – | – | – | –
CC(C)=CCC/C(C)=C/Cc1c(O)ccc(C(=O)/C=C/c2ccc(O)cc2)c1O [Compound 6, xanthoangelol] | – | 7.42e-06 ± 1.12e-06 | 7.41e-06 | > 25.4 | >3.43 | > 25.4 | >3.43 | – | – | – | – | – | – | – | –
COc1cc(CC/C=C/C(=O)CCc2ccccc2)ccc1O [Compound 7, 7-(4″-hydroxy-3″-methoxyphenyl)-1-phenylhept-4-en-3-one] | – | – | 2.48e-06 | > 32.4 | >13.05 | > 32.4 | >13.05 | – | – | – | – | – | – | – | –
COc1cc(C=CC=O)ccc1O [Compound 8, 4-hydroxy-3-methoxycinnamaldehyde] | – | > 1e-05 | 1.64e-05 | > 57 | >3.47 | > 48.1 | >2.93 | 1.64e-05 ± 2.78e-06 | – | – | – | – | – | – | –
C=CCc1ccc(Oc2cc(/C=C/C=O)cc(O)c2O)cc1 [Compound 9, obovatal] | – | 9.89e-06 ± 5.1e-07 | 9.89e-06 | > 33.8 | >3.42 | > 33.8 | >3.42 | – | – | – | – | – | – | – | –
C=CCc1ccc(O)c(-c2ccc(O)c(CC=C)c2)c1 [Compound 10, honokiol] | – | 8.76e-06 ± 3.8e-07 | 8.77e-06 | > 37.6 | >4.29 | > 37.6 | >4.29 | – | – | – | – | – | – | – | –
C=C[C@H](OC(C)=O)c1ccc(OC(C)=O)cc1 [Compound 11, 1′S-1′-acetoxychavicol acetate] | – | < 5e-06 | 4.7e-06 | > 30 | >6.38 | > 23.2 | >4.94 | 4.7e-06 ± 1.53e-06 | – | – | – | – | – | – | –
COc1ccc([C@H](O)[C@@H](C)Oc2ccc([C@H]3O[C@H](c4ccc5c(c4)OCO5)[C@H](C)[C@H]3C)cc2OC)cc1OC [Compound 12, saucerneol D] | – | 5.61e-06 ± 9e-08 | 5.61e-06 | > 18.6 | >3.32 | > 16.2 | >2.89 | – | – | – | – | – | – | – | –
COc1ccc([C@@H](O)[C@@H](C)Oc2ccc([C@H]3O[C@H](c4ccc(O[C@H](C)[C@H](O)c5ccc(OC)c(OC)c5)c(OC)c4)[C@H](C)[C@H]3C)cc2OC)cc1OC [Compound 13, manassantin A] | – | – | – | – | – | – | – | – | 5.43e-06 ± 2.6e-07 | 5.43e-06 | > 13.7 | > 11.8 | – | – | –
COc1ccc([C@@H](O)[C@@H](C)Oc2ccc([C@H]3O[C@H](c4ccc(O[C@H](C)[C@H](O)c5ccc6c(c5)OCO6)c(OC)c4)[C@H](C)[C@H]3C)cc2OC)cc1OC [Compound 14, manassantin B] | – | < 5e-06 | 3.54e-06 | > 13.9 | >3.93 | > 11 | >3.12 | 3.54e-06 ± 4.9e-07 | – | – | – | – | – | – | –
C=C(C)[C@H](CC=C(C)C)Cc1c(O)cc(O)c2c1O[C@H](c1ccc(O)cc1O)CC2=O [Compound 15, kushenol F] | – | – | 1.37e-06 | > 23.8 | >17.34 | > 23.8 | >17.34 | – | – | – | – | – | – | – | –
O=c1cc(-c2ccc(O)cc2)oc2cc(O)cc(O)c12 [Compound 16, apigenin] | anti-trypanosomal activity | > 1e-05 | 1.1e-05 | > 37 | >3.38 | > 37 | >3.38 | 1.1e-05 ± 2.64e-06 | – | – | – | – | – | – | –
COc1ccc(-c2cc(=O)c3c(O)c(OC)c(O)cc3o2)cc1OC [Compound 17, eupatilin] | – | 8.14e-06 ± 1.37e-06 | 8.15e-06 | > 29.1 | >3.58 | > 29.1 | >3.58 | – | – | – | – | – | – | – | –
CC(C)=CCc1c(-c2ccc(O)cc2O)oc2c3c(cc(O)c2c1=O)OC(C)(C)C=C3 [Compound 18, morusin] | – | < 5e-06 | 3.4e-06 | > 23.7 | >6.98 | > 23.7 | >6.98 | 3.4e-06 ± 1.5e-07 | – | – | – | – | – | – | –
O=C1c2ccc(O)cc2OC[C@H]1Cc1ccc(O)c(O)c1 [Compound 19, 3-deoxysappanone B] | – | 5.8e-06 ± 7e-08 | 5.79e-06 | > 35 | >6.04 | > 35 | >6.04 | – | – | – | – | – | – | – | –
CC(C)=CCc1c(O)c(CC=C(C)C)c2occ(-c3ccc(O)c(O)c3)c(=O)c2c1O [Compound 20, 6,8-diprenylorobol] | – | – | 5.2e-07 | > 24.1 | >46.34 | > 24.1 | >46.34 | – | – | – | – | – | – | – | –
O=c1c(-c2ccc(O)cc2)coc2cc(O[C@@H]3O[C@H](CO)[C@@H](O)[C@H](O)[C@H]3O)cc(O)c12 [Compound 21, genistin] | – | < 5e-06 | 3.31e-06 | > 23.1 | >6.99 | > 23.1 | >6.99 | 3.31e-06 ± 7.5e-07 | – | – | – | – | – | – | –
O=c1c(-c2ccc(O[C@@H]3O[C@H](CO)[C@@H](O)[C@H](O)[C@H]3O)cc2)coc2cc(O)cc(O)c12 [Compound 22, sophoricoside] | – | 6.5e-06 ± 5.2e-07 | 6.5e-06 | > 23.1 | >3.56 | > 23.1 | >3.56 | – | – | – | – | – | – | – | –
N=C(N)c1ccc(OCCCCCOc2ccc(C(=N)N)cc2)cc1 [Pentamidine, reference compound] | – | 4e-09 ± 3e-09 | – | – | – | – | <26.7 | – | – | – | – | – | – | – | –
demethoxycurcumin [Compound 2] | anti-trypanosomal activity | – | – | – | – | – | – | 7.19e-06 ± 1.02e-06 | – | – | – | – | 5.143 | > 29.6 | > 21.4
